Experimental data taken from the SangsterLogP compilation.

| logP | SMILES |
| --- | --- |
| 3.19 | COc1c(Cl)cccc1Cl |
| 4 | COc1c(Cl)cc(Cl)cc1Br |
| 3.3 | COc1cccc(Cl)c1Cl |
| 4.66 | COc1c(Cl)c(Cl)cc(Br)c1Cl |
| 4.33 | COc1c(Br)cc(Cl)cc1Br |
| 5.29 | COc1cc(Cl)c(Br)c(Cl)c1Br |
| 5.29 | COc1c(Br)cc(Br)c(Cl)c1Br |
| 3.15 | COc1ccc(Br)cc1 |
| 5.16 | COc1c(Cl)c(Cl)c(Cl)c(Cl)c1Cl |
| 3.95 | COc1cc(Cl)c(Cl)cc1Cl |
| 3.59 | COc1ccc(Cl)cc1Br |
| 2.72 | COc1ccccc1Cl |
| 5.55 | COc1c(Br)c(Cl)c(Cl)c(Cl)c1Br |
| 4.47 | COc1ccc(Br)c(Cl)c1Cl |
| 4.97 | COc1cc(Cl)c(Cl)c(Cl)c1Br |
| 4.47 | COc1c(Br)ccc(Cl)c1Cl |
| 5.43 | COc1c(Br)c(Br)c(Br)c(Br)c1Br |
| 2.87 | COc1ccccc1Br |

| logP | SMILES |
| --- | --- |
| 3.27 | COc1cc(Cl)ccc1Cl |
| 4.47 | COc1cc(Br)c(Cl)cc1Cl |
| 5.26 | COc1c(Cl)c(Cl)c(Br)c(Cl)c1Cl |
| 4.66 | COc1c(Cl)cc(Br)c(Cl)c1Cl |
| 3.42 | COc1c(Br)cccc1Br |
| 5.29 | COc1c(Cl)c(Cl)cc(Br)c1Br |
| 4.02 | COc1c(Cl)cc(Br)cc1Cl |
| 3.46 | COc1ccc(Cl)cc1Cl |
| 3.77 | COc1ccc(Br)cc1Cl |
| 4.64 | COc1c(Br)cc(Cl)c(Cl)c1Cl |
| 3.23 | COc1cccc(Br)c1 |
| 3.75 | COc1ccc(Br)cc1Br |
| 4.39 | COc1cc(Cl)c(Br)c(Cl)c1 |
| 4.39 | COc1cc(Cl)cc(Cl)c1Br |
| 4.97 | COc1c(Br)cc(Br)c(Cl)c1Cl |
| 3.44 | COc1c(Cl)cccc1Br |
| 4.57 | COc1cc(Cl)c(Cl)c(Cl)c1Cl |
| 4.05 | COc1cc(Cl)cc(Cl)c1Cl |

| SMILES | logP |
| --- | --- |
| COc1c(Cl)ccc(Cl)c1Cl | 3.76 |
| COc1ccc(Cl)c(Cl)c1 | 3.55 |
